Target: T1, recombinant HSL (Homo sapiens, UniProt Q05469)
T1 sequence (Q05469 1-1076): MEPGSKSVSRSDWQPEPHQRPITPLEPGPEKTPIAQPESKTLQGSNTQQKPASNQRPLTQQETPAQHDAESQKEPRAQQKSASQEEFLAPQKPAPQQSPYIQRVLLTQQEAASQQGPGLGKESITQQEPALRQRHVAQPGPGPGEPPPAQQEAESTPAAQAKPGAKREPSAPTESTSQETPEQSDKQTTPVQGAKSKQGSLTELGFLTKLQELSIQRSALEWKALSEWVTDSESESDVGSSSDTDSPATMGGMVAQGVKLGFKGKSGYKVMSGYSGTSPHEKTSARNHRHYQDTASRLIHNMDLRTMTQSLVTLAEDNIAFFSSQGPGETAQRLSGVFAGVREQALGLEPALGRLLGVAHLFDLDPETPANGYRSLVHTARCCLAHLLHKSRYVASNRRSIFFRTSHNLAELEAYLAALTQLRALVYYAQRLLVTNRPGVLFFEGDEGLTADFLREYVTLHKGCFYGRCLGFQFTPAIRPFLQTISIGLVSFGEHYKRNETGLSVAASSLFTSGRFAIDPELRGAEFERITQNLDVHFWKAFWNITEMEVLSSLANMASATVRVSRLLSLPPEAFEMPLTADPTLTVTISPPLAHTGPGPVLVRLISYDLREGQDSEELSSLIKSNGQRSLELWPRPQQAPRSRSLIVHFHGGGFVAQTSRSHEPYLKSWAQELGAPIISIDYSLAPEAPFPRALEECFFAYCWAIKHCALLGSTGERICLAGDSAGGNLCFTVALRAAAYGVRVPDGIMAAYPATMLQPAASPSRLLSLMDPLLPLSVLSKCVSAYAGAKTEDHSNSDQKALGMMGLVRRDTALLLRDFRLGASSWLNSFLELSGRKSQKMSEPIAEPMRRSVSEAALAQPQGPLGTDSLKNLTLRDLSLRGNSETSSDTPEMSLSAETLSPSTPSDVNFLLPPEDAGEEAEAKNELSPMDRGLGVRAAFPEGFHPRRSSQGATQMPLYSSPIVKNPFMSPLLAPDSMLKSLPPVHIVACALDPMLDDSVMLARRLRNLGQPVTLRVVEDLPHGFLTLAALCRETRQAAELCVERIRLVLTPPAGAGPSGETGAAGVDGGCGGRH
Experiment: Inhibition of recombinant HSL activity
Assay type: biochemical
Procedure: Compounds 1-7 were dissolved in 20% DMSO as 10 mg/mL stock, and used in assays with recombinant HSL to test for the potency for inhibiting HSL activity, the protocol for which is described in International Patent Application No. PCT/US07/00284, which is incorporated by reference in its entirety herein. Each compound's inhibitory effect on HSL is shown in FIG. 1 and 2, with Compound 1 having an IC50 of about 0.1 to about 0.2 mg/mL and Compound 5 showing about 40% inhibition at 0.4 mg/mL.

CCN(CC)C(CC(=O)OCCc1ccc(O)cc1)CC(=O)OCc1ccccc1 (centres unmarked) [Compound 1]
IC50 (compound stock 10 mg/mL in 20% DMSO, read-out: IC50 for inhibiting HSL activity): 242 to 484 µM

COC(=O)C(=O)NC(CC(=O)NCCc1ccc(O)cc1)CC(=O)OCc1ccccc1 (centres unmarked) [Compound 5]
inhibition at 400 µg/mL (at 0.4 mg/mL): ~40%
